Test results published in ChEMBL document CHEMBL3507680, “University of Dundee, Gates Library screen for HepG2 cell viability”.

assay: Human HepG2 cell viability assay in 384 well format; assay type: toxicity, cell-based; design: dose 125 nL, time 70.5 hour; cytotoxicity at 70.5 h: concentration not given beside the values; details: HepG2 cells, read-out: Inhibition

Structure (SMILES) | cytotoxicity at 70.5 h [%]
O=C(NCN1CCc2ccccc2C1)c1cnccn1 | -8.88
CC(=O)N(Cc1ncc(C)o1)C1CCN(CCNC2CCCCC2)C1 (stereo not drawn) | 9.67
O=C(CCn1ccccc1=O)Nc1ccc(F)c(Cl)c1 | -11.7
Cn1c(Nc2cn[nH]c2)c(C#N)c(=O)n(C)c1=O | 11.5
CCN(CC)c1ccc(C(=O)NCc2cccnc2-n2cncn2)cn1 | -10.7
Cc1ccccc1OCCC(=O)OC(C)C(=O)Nc1sccc1C(N)=O (stereo not drawn) | -7.64
COc1cccc(CNC(CN2CCN(C)CC2)c2ccccc2)c1 (stereo not drawn) | 5.01
Cc1ccc(CNC(CN2CCN(C)CC2)c2ccccc2)cc1 (stereo not drawn) | 3.21
C[S+]([O-])c1nncn1CC(=O)c1cccc(Cl)c1 (stereo not drawn) | -7.53
C[S+]([O-])c1nncn1CC(=O)c1ccc2c(c1)CCO2 (stereo not drawn) | -2.98
CC1CN=C(N2CCN(C(=O)Nc3nc(-c4ccccc4)ns3)CC2)S1 (stereo not drawn) | 9.01
Cc1ccc(NC(=O)NC(C)c2nc[nH]n2)cc1 (stereo not drawn) | -5.24
CC(C)(C)N1CCCN(C(=O)c2csc(S(N)(=O)=O)c2)CC1 | 15.7
Cc1cnc(CN2CCC(N(C)Cc3nnc(C4CC4)n3C)C2)cn1 (stereo not drawn) | -11
CCCN1CCC(N(Cc2ncc(C)o2)C(C)=O)C1 (stereo not drawn) | -8
CN(C)C(CNC(=O)NCCc1cccc(O)c1)c1ccco1 (stereo not drawn) | -5.87
O=C(CCc1cc(F)ccc1F)NS(=O)(=O)c1ccc2c(c1)OCCO2 | 0.522
O=C(CCc1c(F)cccc1F)NS(=O)(=O)c1ccc2c(c1)OCCO2 | -6.92
O=C(CCc1ccccc1Br)NS(=O)(=O)c1ccc2c(c1)OCCO2 | -1.54
Cc1cn2nc(N3CCN(Cc4c(C)noc4C)CC3)sc2n1 | 0.994

Structure (SMILES) | cytotoxicity at 70.5 h [%]
Cc1cn2nc(N3CCN(Cc4nc(C(C)C)no4)CC3)sc2n1 | 19.7
COc1ccccc1C(=O)N1CCN(C(=O)Cc2ccccn2)CC1 | -6.85
Cc1ccc(C(=O)N2CCN(C(=O)Cc3ccccn3)CC2)c(C)c1 | -5.32
Cc1ccc(-c2nc(CN3CCCC(C(=O)N(C)C)C3)cs2)o1 (stereo not drawn) | 1.88
Cc1nccn1C1CCCN(C(=O)CCNc2ncccn2)C1 (stereo not drawn) | -3.44
CCc1nc(CN2CCCN(CC(O)c3ccccc3)CC2)no1 (stereo not drawn) | -8.08
Cc1nn(C)c(N(C)C)c1CNCc1ccnc(N2CCCCC2)c1 | -2.08
CCC(O)CN1CCN(C(=O)c2ccn(C)c(=O)c2)CC1 (stereo not drawn) | -9.11
COCc1nc(C(=O)N2CCCC2c2cc(C)on2)cs1 (stereo not drawn) | -9.83
CCOc1cccc(C(=O)N2CCC(c3n[nH]c(C4CC4)n3)CC2)c1 | -8.11
CC(NC(=O)NCCCN(C)S(C)(=O)=O)c1cccnc1 (stereo not drawn) | -7.17
COCc1nc(C(=O)N2CCCC2c2noc(C)n2)cs1 (stereo not drawn) | -9.63
Cc1nn(C)c(N(C)C)c1CNCc1ccnc(N2CCCC2)c1 | -4.33
O=C(CCc1nccs1)N1CCCC(n2ccnc2)C1 (stereo not drawn) | -11.8
CS(=O)(=O)NCCCNC(=O)NCc1ccccc1 | -8.73
CC(=O)Nc1nc(C(=O)NCc2ccc(N3CCOC(C)C3)nc2)cs1 (stereo not drawn) | -7.71
CC(=O)Nc1nc(C(=O)NCc2ccnc(N3CCCC3)c2)cs1 | -6.6
CC(=O)Nc1nc(C(=O)NCc2ccc(N3CCCC3)nc2)cs1 | -7.65
CC(NC(=O)NCCCN(C(C)C)S(C)(=O)=O)c1ccncc1 (stereo not drawn) | -2.51
Cc1cccc(C(=O)NCc2ccc(N3CCCCCC3)nc2)n1 | -6.26

Structure (SMILES) | cytotoxicity at 70.5 h [%]
CC(NC(=O)NCCCN(C)S(C)(=O)=O)c1ccc(Cl)cc1 (stereo not drawn) | -7.7
Cc1ccc(CNC(=O)CCNS(C)(=O)=O)cc1 | -5.54
COc1ccc(CNC(=O)NCCCNS(C)(=O)=O)cc1OC | -8.21
CN(C)c1ccc(C(=O)N2CCC(c3n[nH]c(C4CC4)n3)CC2)cc1 | -6.1
COc1cc(Cl)ccc1C(=O)NCc1nncn1C | -6.32
CCc1cccc(N2CCC(NC(=O)c3ccco3)CC2)c1 | -3.29
O=C(c1ccc2c(c1)CCC2)N1CCC(c2n[nH]c(C3CC3)n2)CC1 | -7.78
CC(=O)Nc1nc(C(=O)NCc2ccc(N3CCCCC3)cc2)cs1 | -3.91
Cc1cc(C)n(C2CN(CC(=O)NC(C3CC3)C3CC3)C2)n1 | -3.88
Cc1cc(C)n(C2CN(CCC(=O)NC3CCCCC3)C2)n1 | -4.9
Cc1cc(C)n(CC2CCCN2C(=O)c2cnccn2)n1 (stereo not drawn) | 14.8
COc1ccccc1NC(=O)NCC(O)c1ccc(F)cc1F (stereo not drawn) | 17.3
CCOc1c(Br)cc(/C=C/c2ncc(C(=O)O)s2)cc1OC | -11.1
Cn1cc(C(=O)NCC2CCN(C(=O)NC3CC3)CC2)cn1 | -19.1
Cc1cnn(C2CCCN(C(=O)c3ccc(Cn4ccnc4)cc3)C2)c1 (stereo not drawn) | 17.4
COC(=O)C(c1cc(F)ccc1F)N(C)C(=O)c1cnc(C)cn1 (stereo not drawn) | -9.59
Cc1ccc(NC2CCN(C(=O)COc3ccccc3)CC2)nn1 | -15.7
Cc1ccc(NC2CCN(C(=O)COC3CCCC3)CC2)nn1 | -8.07
